# Assay results as given in patent US10688200B2, “Urea-based prostate specific membrane antigen (PSMA) inhibitors for imaging and therapy” (Five Eleven Pharma Inc., priority 2015, dated 2020).
# What was measured:
# [1] = biological target: T1, PSMA (Homo sapiens, UniProt Q04609); assay: In vitro competitive binding assay to determine IC50 to PSMA; conditions: LNCaP cells, [125I]MIP-1095 radioligand, 37° C. 1 h, mean±SD (n=4); read-out: PSMA binding affinities of cold ligands, IC50
# T1 construct: 100 μL of freshly harvested PSMA cells; endogenous in cells; host or cells: 'PSMA cells' in the method
# T1 sequence (Q04609 whole entry): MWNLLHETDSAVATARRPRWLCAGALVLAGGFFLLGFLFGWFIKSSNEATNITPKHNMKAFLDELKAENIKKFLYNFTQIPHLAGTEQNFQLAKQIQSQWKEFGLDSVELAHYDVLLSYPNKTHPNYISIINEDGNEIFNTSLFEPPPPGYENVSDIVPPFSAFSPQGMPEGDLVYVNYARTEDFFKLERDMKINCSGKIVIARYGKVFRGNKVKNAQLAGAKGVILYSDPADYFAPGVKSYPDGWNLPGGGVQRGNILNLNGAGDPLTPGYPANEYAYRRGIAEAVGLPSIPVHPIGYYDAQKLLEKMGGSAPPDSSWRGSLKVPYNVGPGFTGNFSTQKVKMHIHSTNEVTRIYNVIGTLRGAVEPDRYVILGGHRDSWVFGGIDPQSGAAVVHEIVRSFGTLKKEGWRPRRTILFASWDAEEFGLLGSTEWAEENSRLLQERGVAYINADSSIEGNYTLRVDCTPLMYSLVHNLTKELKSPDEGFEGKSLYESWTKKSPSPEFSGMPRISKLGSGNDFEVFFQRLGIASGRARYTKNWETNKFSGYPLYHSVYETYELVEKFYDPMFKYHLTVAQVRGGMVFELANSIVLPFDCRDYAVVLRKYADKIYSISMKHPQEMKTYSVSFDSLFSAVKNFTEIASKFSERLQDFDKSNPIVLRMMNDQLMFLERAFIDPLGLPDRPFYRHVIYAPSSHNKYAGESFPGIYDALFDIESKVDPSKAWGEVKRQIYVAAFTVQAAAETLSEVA
# Procedure: In Vitro Competitive Binding Assay to Determine IC50 to PSMA
# In order to determine the binding affinity, in vitro competitive binding assays were performed. The LNCaP cells were incubated with 150,000 cpm of [^125I]MIP-1095 in the presence of 10 different concentrations of competing drugs. After incubation at 37° C. for 1 h, the bound and free radioactivity were separated by vacuum filtration through GF/B filter paper using a Brandel M-24R cell harvester followed by washing twice. Non-specific binding was defined with 10 μM PMPA. The cell bound radioactivity was measured with a gamma counter, 2470 Wizard^2 (Perkin-Elmer, IL). The IC50 values were calculated by fitting the data using a nonlinear regression algorithm (GraphPad Software).
# The PSMA binding affinities were determined in a competitive binding assay using LNCaP human prostate carcinoma cells and the known high affinity PSMA ligand, [^125I]MIP-1095 as the radioligand. Data are expressed as mean±SD (n=4).
# [2] = biological target: T1, PSMA; assay: In vitro binding signals of 68Ga labeled ligands in LNCaP tumor homogenates; conditions: Ga-68 radiolabeled ligands; for Total binding (TB): 37° C. 60 min; for Nonspecific binding (NSB): with 1a (PSMA11) 10 μM
Compound,IC50 [1] [nM],Specific binding (SB) SB = TB − NSB [2],Total binding (TB) [2],Nonspecific binding (NSB) [2]
"O=C(O)CC[C@H](NC(=O)N[C@@H](CCCCNC(=O)CCCCCNC(=O)CCc1ccc(O)c(CN(CCN(CC(=O)O)Cc2cc(CCC(=O)N[C@H]3C(O)O[C@H](CO)[C@@H](O)[C@@H]3O)ccc2O)CC(=O)O)c1)C(=O)O)C(=O)O (stereo partly drawn) [Compound 1b, (3S,7S)-22-(3-(((Carboxymethyl)(2-((carboxymethyl)(2-hydroxy-5-(3-oxo-3-(((3R,4R,5S,6R)-2,4,5-trihydroxy-6-(hydroxymethyl)tetrahydro-2H-pyran-3-yl)amino)propyl)benzyl)amino)ethyl)amino)methyl)-4-hydroxyphenyl)-5,13,20-trioxo-4,6,12,19-tetraazadocosane-1,3,7-tricarboxylic acid]",53.3 ± 30.9,8.8,10.8,2.0
"O=C(O)CC[C@H](NC(=O)N[C@@H](CCCCNC(=O)CCCCCNC(=O)CCc1ccc(O)c(CN(CCN(CC(=O)O)Cc2cc(CCC(=O)NCC(=O)O)ccc2O)CC(=O)O)c1)C(=O)O)C(=O)O [Compound 1c, (3S,7S)-22-(3-(((Carboxymethyl)(2-((carboxymethyl)(5-(3-((carboxymethyl)amino)-3-oxopropyl)-2-hydroxybenzyl)amino)ethyl)amino)methyl)-4-hydroxyphenyl)-5,13,20-trioxo-4,6,12,19-tetraazadocosane-1,3,7-tricarboxylic acid]",25.6 ± 9.4,11.8,13.4,1.6
"C[C@H](NC(=O)CCc1ccc(O)c(CN(CCN(CC(=O)O)Cc2cc(CCC(=O)NCCCCCC(=O)NCCCC[C@H](NC(=O)N[C@@H](CCC(=O)O)C(=O)O)C(=O)O)ccc2O)CC(=O)O)c1)C(=O)O [Compound 1d, (3S,7S)-22-(3-(((2-((5-(3-(((S)-1-Carboxyethyl)amino)-3-oxopropyl)-2-hydroxybenzyl)(carboxymethyl)amino)ethyl)(carboxymethyl)amino)methyl)-4-hydroxyphenyl)-5,13,20-trioxo-4,6,12,19-tetraazadocosane-1,3,7-tricarboxylic acid]",26.8 ± 6.3,11.2,12.6,1.4
"O=C(O)CC[C@H](NC(=O)N[C@@H](CCCCNC(=O)CCCCCNC(=O)CCc1ccc(O)c(CN(CCN(CC(=O)O)Cc2cc(CCC(=O)N[C@@H](CC(=O)O)C(=O)O)ccc2O)CC(=O)O)c1)C(=O)O)C(=O)O [Compound 1e, (3S,7S)-22-(3-(((Carboxymethyl)(2-((carboxymethyl)(5-(3-(((S)-1,2-dicarboxyethyl)amino)-3-oxopropyl)-2-hydroxybenzyl)amino)ethyl)amino)methyl)-4-hydroxyphenyl)-5,13,20-trioxo-4,6,12,19-tetraazadocosane-1,3,7-tricarboxylic acid]",29.5 ± 11,13.2,14.8,1.6
"O=C(O)CC[C@H](NC(=O)CCc1ccc(O)c(CN(CCN(CC(=O)O)Cc2cc(CCC(=O)NCCCCCC(=O)NCCCC[C@H](NC(=O)N[C@@H](CCC(=O)O)C(=O)O)C(=O)O)ccc2O)CC(=O)O)c1)C(=O)O [Compound 1f, (3S,7S)-22-(3-(((Carboxymethyl)(2-((carboxymethyl)(5-(3-(((S)-1,3-dicarboxypropyl)amino)-3-oxopropyl)-2-hydroxybenzyl)amino)ethyl)amino)methyl)-4-hydroxyphenyl)-5,13,20-trioxo-4,6,12,19-tetraazadocosane-1,3,7-tricarboxylic acid]",37.2 ± 18.6,12.0,13.5,1.5
"O=C(O)CC[C@H](NC(=O)N[C@@H](CCCCNC(=O)CCCCCNC(=O)CCc1ccc(O)c(CN(CCN(CC(=O)O)Cc2cc(CCC(=O)NCCNC(=O)CN3CCN(CC(=O)O)CCN(CC(=O)O)CCN(CC(=O)O)CC3)ccc2O)CC(=O)O)c1)C(=O)O)C(=O)O [Compound 1g, (3S,7S)-22-(3-(((carboxymethyl)(2-((carboxymethyl)(2-hydroxy-5-(3-oxo-3-((2-(2-(4,7,10-tris(carboxymethyl)-1,4,7,10-tetraazacyclododecan-1-yl)acetamido)ethyl)amino)propyl)benzyl)amino)ethyl)amino)methyl)-4-hydroxyphenyl)-5,13,20-trioxo-4,6,12,19-tetraazadocosane-1,3,7-tricarboxylic acid]",70.2 ± 29.1,9.0,10.5,1.5
"O=C(O)CCc1ccc(O)c(CN(CCN(CC(=O)O)Cc2nc(CCC(=O)NCCCCCC(=O)NCCCC[C@H](NC(=O)N[C@@H](CCC(=O)O)C(=O)O)C(=O)O)ccc2O)CC(=O)O)n1 [Compound 2, (3S,7S)-22-(6-(((2-(((6-(2-Carboxyethyl)-3-hydroxypyridin-2-yl)methyl) (carboxymethyl)amino)ethyl)(carboxymethyl)amino)methyl)-5-hydroxypyridin-2-yl)-5,13,20-trioxo-4,6,12,19-tetraazadocosane-1,3,7-tricarboxylic acid]",40.4 ± 18.3,4.1,9.2,5.1
"O=C(O)CC[C@H](NC(=O)N[C@@H](CCCCNC(=O)CCCCCNC(=O)CCc1ccc(O)c(CN(CCN(CC(=O)O)Cc2nc(CCC(=O)NCCCCCC(=O)NCCCC[C@H](NC(=O)N[C@@H](CCC(=O)O)C(=O)O)C(=O)O)ccc2O)CC(=O)O)n1)C(=O)O)C(=O)O [Compound 3, (3S,3′S,7S,7′S)-22,22′-(6,6′-((Ethane-1,2-diylbis((carboxymethyl)azanediyl))bis(methylene))bis(5-hydroxypyridine-6,2-diyl))bis(5,13,20-trioxo-4,6,12,19-tetraazadocosane-1,3,7-tricarboxylic acid)]",132 ± 11,5.8,10.0,4.2
"O=C(O)CCc1ccc(O)c(CN(CCN(CC(=O)O)Cc2cc(CCC(=O)NCCCCCC(=O)NCCCC[C@H](NC(=O)N[C@@H](CCC(=O)O)C(=O)O)C(=O)O)ccc2O)CC(=O)O)n1 [Compound 4a, (3S,7S)-22-(3-(((2-(((6-(2-Carboxyethyl)-3-hydroxypyridin-2-yl)methyl)(carboxymethyl)amino)ethyl)(carboxymethyl)amino)methyl)-4-hydroxyphenyl)-5,13,20-trioxo-4,6,12,19-tetraazadocosane-1,3,7-tricarboxylic acid]",67.4 ± 30.3,12.0,13.4,1.4
"O=C(O)CCc1ccc(O)c(CN(CCN(CC(=O)O)Cc2nc(CCC(=O)NCCCCCC(=O)NCCCC[C@H](NC(=O)N[C@@H](CCC(=O)O)C(=O)O)C(=O)O)ccc2O)CC(=O)O)c1 [Compound 4b, (3S,7S)-22-(6-(((2-((5-(2-Carboxyethyl)-2-hydroxybenzyl)(carboxymethyl)amino)ethyl) (carboxymethyl)amino)methyl)-5-hydroxypyridin-2-yl)-5,13,20-trioxo-4,6,12,19-tetraazadocosane-1,3,7-tricarboxylic acid]",40.5 ± 20.5,8.8,10.3,1.5
"O=C(O)CC[C@H](NC(=O)N[C@@H](CCCCNC(=O)[C@H](Cc1ccccc1)NC(=O)COc1ccc(C[C@H](NC(=O)CNC(=O)CN2CCN(CC(=O)O)CCN(CC(=O)O)CCN(CC(=O)O)CC2)C(=O)O)cc1)C(=O)O)C(=O)O [Compound 5a, (4S,11S,15S)-4-Benzyl-1-(4-((S)-2-carboxy-2-(2-(2-(4,7,10-tris(carboxymethyl)-1,4,7,10-tetraazacyclododecan-1-yl)acetamido)acetamido)ethyl)phenoxy)-2,5,13-trioxo-3,6,12,14-tetraazaheptadecane-11,15,17-tricarboxylic acid.]",36.1 ± 18.1,2.83,3.30,0.47
